Data taken from patent US20260151457A1, “Peptides and Fragments for Treating Diabetes and Associated Metabolic Diseases” (Betavive Ltd., priority 2024, published 2026).

Legend:
STZ-treated mice [1] = assay: Intraperitoneal glucose tolerance test on STZ-treated mice treated with IGF-2; assay type: in vivo
Description: In this experiment, four STZ-treated mice were treated with 12,000 μg/kg/day of IGF-2 (four injections of 3000 μg/kg/day) 5 days and two mice were treated for 10 days. A glucose tolerance test was performed 50 days post-treatment with IGF-2 by challenging the treated mice with a 2 grams/kg dose of glucose and determining the blood glucose level over a 180 minute time course. The blood glucose curves of the treated mice were compared to results for a saline control, and normal (nondiabetic) obese and normal (nondiabetic) lean mice based on published literature (Jorgensen et al., J. Am Assoc. Lab. Animal Sci 2017 56 (1): 95-97).

STZ-treated mice [2] = assay: Pancreas histology and insulin immunohistochemistry in STZ-treated mice; assay type: in vivo
Description: FIG. 21 depicts pancreas histology results on STZ-treated mice. […] The non-control mice were treated once a day for 10 days with a 3000 μg/kg dose of IGF-2. The mice were sacrificed on day 35 and pancreas cells were assessed as being insulin positive or negative.

db/db mice [3] = assay: 14 hour fasting blood glucose in db/db mice treated with IGF-2; assay type: in vivo
Description: db/db mice are bred to have a leptin deficiency, increasing susceptibility of the mice to obesity, insulin resistance, and type 2 diabetes (T2D).
In this experiment, one group of db/db mice was injected with 3000 μg/kg/day of IGF-2 for 68 days, a second group of db/db mice was injected with 12000 μg/kg/day of IGF-2 for 66 days, and a third group of db/db mice was injected with saline once a day for 68 days.
In one experiment (left panel), one group of db/db mice was injected with a daily dose of 12000 μg/kg of IGF-2 divided in two injections per day for 70 days, while another group of db/db mice was injected with saline. […] In another experiment (right panel), one group of db/db mice was injected with a daily dose of 12000 μg/kg of IGF-2 divided in two injections per day for 35 days, while another group of db/db mice was injected with saline.
In one exemplary experiment, db/db mice were treated with a 12,000 μg/kg daily dose for 70 days with 70 days of follow up (during which IGF-2 was not administered). All the treated mice maintained normoglycemia for at least 50 days following treatment. In another exemplary experiment, db/db mice were treated with a 12,000 μg/kg daily dose for 35 days with 35 days of follow up (during which IGF-2 was not administered). All the treated mice maintained normoglycemia for 35 days following treatment.

db/db mice [4] = assay: Serum insulin in db/db mice after long-term IGF-2 treatment; assay type: in vivo; conditions: 12,000 μg/kg daily for 68 days, measured 6.5 weeks after end of treatment
Description: In this experiment, one group of db/db mice (labeled FA X1) was injected with 3000 μg/kg of IGF-2 once a day for 68 days, a second group of db/db mice (labeled FA X4) was injected with a daily dose of 12000 μg/kg of IGF-2 divided in two injections per day for 68 days, and a third group of db/db mice was injected with saline. Serum insulin levels were measured 6.5 weeks after the end of the 68 day treatment. Treatment with the 12,000 μg/kg daily dose increased serum insulin levels by about 50% with respect to the control.

β-MIN6 cells = assay: Cell count (proliferation) of β-MIN6 cells; assay type: cell-based, mouse; conditions: 5 nM, 20 nM, 80 nM, 1 week treatment
Source text: β-MIN6 cells serve as an in vitro model of mouse pancreatic islets. β-MIN6 cells were used as an in vitro model to measure the effects of treatment with IGF-2.

STZ-treated mouse islets = assay: Insulin secretion from STZ-treated mouse islets; assay type: cell-based; conditions: islets treated with 2.5 mM STZ; IGF-2 50 nM and 500 nM, GLP-1 100 nM and 1000 nM; 48 hours
Description: Mouse islet cells were treated with 2.5 mM STZ and subsequently treated with either IGF-2 (FA) at 50 nM and 500 nM, or with GLP-1 at 100 nM and 1000 nM.

[5] = test system: human pancreatic islet cells; assay: Insulin secretion of human pancreatic islet cells in response to a glucose pulse; assay type: cell-based; conditions: IGF-2 50 nM for four days
Beta-TC-6 cells = assay: Insulin secretion assay using Beta-TC-6 cells; assay type: cell-based; conditions: 2 hours, 500 mM of each peptide, Mouse Insulin ELISA
Description: To evaluate insulin secretion in response to peptide treatment, Beta-TC-6 cells were plated in 96-well culture plates at a density of 8×10^4 cells per well. After 48 hours of incubation, the cells were washed and preincubated in serum-free medium for 1 hour. Following this, cells were treated for 2 hours with 200 μl of serum-free medium supplemented with […] of each peptide. After the treatment period, the induction medium was collected and stored at −80° C. until analysis. Insulin levels in the collected medium were measured using the Mercodia Mouse Insulin ELISA Kit (#10-1247-01) according to the manufacturer's instructions. […] Results appear in FIG. 36.

Human pancreatic islets = assay: Peptides efficacy on human pancreatic islets (IHC, digital quantitative pathological analysis); assay type: cell-based; conditions: IGF-2 500 nM, Peptide-20 1000 nM, five days
Description: Human pancreatic islets, obtained from Prodo Labs, were cultured in Prodo Labs PIM(S) media and maintained at 37° C. with 5% CO2 to ensure optimal viability. The islets were treated with IGF-2 (500 nM) and Peptide-20 (1000 nM) for five days under continuous exposure. After treatment, islets were collected and fixed in 4% paraformaldehyde (PFA) to preserve cellular and structural integrity. The samples were then processed for formalin-fixed paraffin-embedded (FFPE) histology. Sectioned islets were stained using immunohistochemistry (IHC) with specific markers to assess islet integrity, β-cell function, and proliferation. Microscopic Digital Quantitative Pathological Analysis provided critical insights into the effects of IGF-2 and Peptide-20 on islet structure and function. […] These findings establish Peptide-20 as a strong candidate for novel diabetes therapies aimed at restoring islet function and reversing β-cell loss. […] Their ability to enhance β-cell survival and proliferation positions them as strong candidates for the development of novel regenerative therapies, paving the way for innovative drug development aimed at reversing diabetes and restoring endogenous insulin production.

C57BL/6 STZ mice = assay: Fasting blood glucose in STZ-induced diabetic C57BL/6 mice treated with IGF-2; assay type: in vivo; conditions: IGF-2 12,000 μg/kg daily on each of 12 consecutive days

Substance: insulin-like growth factor 2 [IGF-2]
- Response to the glucose tolerance test (permanently cured mice) (STZ-treated mice [1]; 12,000 μg/kg/day for 5 or 10 days, test 50 days post-treatment, 2 grams/kg glucose, 180 minutes): fell between the glucose tolerance results from the literature for non-diabetic obese mice and non-diabetic lean mice
- Glucose levels in the glucose tolerance test (Mouse 01, not permanently cured) (STZ-treated mice [1]; 12,000 μg/kg/day, test 50 days post-treatment, 2 grams/kg glucose): higher than the normal obese mouse
- Number of IGF-2-treated mice permanently cured (STZ-treated mice [1]; six STZ mice treated with 12,000 μg/kg/day, four for 5 days and two for 10 days): Five
- Level of insulin in pancreas islets compared to a naïve mouse (IHC) (STZ-treated mice [2]; non-permanently cured mouse): lower level of insulin in its pancreas islets
- Increase in the number of functional beta cells (STZ-treated mice [2]; permanently cured mice, 3000 μg/kg once a day for 10 days, sacrificed on day 35): four
- Level of insulin in pancreas islets compared to a naïve mouse (IHC) (STZ-treated mice [2]; permanently cured mouse): higher level of insulin in its pancreas islets
- 14 hour fasting blood glucose levels (db/db mice [3]; 3000 μg/kg/day for 68 days, first group b178, second group b179): reduced blood glucose levels (14 hour fasting blood glucose levels) to a normal range even after the end of the 68 day treatment period
- Time all treated mice maintained normoglycemia following treatment (db/db mice [3]; 12,000 μg/kg daily for 35 days, 35 days of follow up): 35 days
- Time all treated mice maintained normoglycemia following treatment (db/db mice [3]; 12,000 μg/kg daily for 70 days, 70 days of follow up): at least 50 days
- 14 hour fasting blood glucose levels (db/db mice [3]; 12000 μg/kg daily in two injections per day for 35 days): reduced blood glucose levels (14 hour fasting blood glucose levels) to a normal range even after the end of the 35 day treatment period
- 14 hour fasting blood glucose levels (db/db mice [3]; 12000 μg/kg daily in two injections per day for 70 days): reduced blood glucose levels (14 hour fasting blood glucose levels) to a normal range even after the end of the 70 day treatment period
- 14 hour fasting blood glucose levels (db/db mice [3]; 12000 μg/kg/day for 66-68 days, first group b178, second group b179): reduced blood glucose levels (14 hour fasting blood glucose levels) to a normal range even after the end of the 68 day treatment period
- Increase in serum insulin levels with respect to the control (db/db mice [4]): about 50%
- Cell count (cell proliferation) (β-MIN6 cells): increases cell proliferation in a dose-dependent manner
- Insulin secretion (STZ-treated mouse islets): increased in a dose dependent manner
- Increase in insulin secretion in response to a glucose pulse compared to untreated cells [5]: ~50%
- Insulin secretion compared to the control (Beta-TC-6 cells): enhanced insulin secretion compared to the control
- Pancreatic islet regeneration, integrity and function (Human pancreatic islets): significant regenerative potential
- Long-term improvements in blood glucose levels (C57BL/6 STZ mice): long-term improvements in blood glucose levels were obtained
